Laboratory results taken from patent publication US20130274276A1, “METHODS AND COMPOSITIONS FOR DETERMINING VIRUS SUSCEPTIBILITY TO NON-NUCLEOSIDE REVERSE TRANSCRIPTASE INHIBITORS” (Laboratory Corporation of America Holdings, priority 2012, published 2013).

Experiments:
Type in all cases: cell-based
[1] = test system: HIV engineered to contain the Y188L reverse transcriptase mutation
Description: Site-directed mutagenesis (SDM) was performed to verify the association of Y188L with RPV resistance. The impact of this mutation was also evaluated and compared to the existing RPV RAMs (K101E/P, E138A/G/K/Q/R, V179L, Y181C/I/V, H221Y, F227C, and M230I/L) by performing in-silico site directed mutagenesis (is SDM) as a method for analyzing samples in the database that have wild type amino acids at RPV resistance positions except for the single mutation of interest. Samples were not excluded based on other NNRTI RAMs, or their NRTI and PI profile. In the is SDM analysis, fold change (FC) distribution of samples with each mutation was compared to specimens without the mutation, and the difference was evaluated for statistical significance using Mann-Whitney test. […]
Drug susceptibility tests performed with resistance test vectors were carried out using packaging host and target host cells consisting of the human embryonic kidney cell line 293. Susceptibility tests were carried out with the RTV libraries by using viral particles comprising the RTV libraries to infect a host cell in which the expression of the indicator gene is measured. The amount of indicator gene (luciferase) activity detected in infected cells is used as a direct measure of “infectivity,” i.e., the ability of the virus to complete a single round of replication. […]

[2] = test system: HIV clinical specimens with Y188L and no known RPV resistance associated mutations; assay: In-silico site directed mutagenesis (isSDM) analysis of matched phenotype/genotype database of clinical specimens; settings: 286 clinical specimens with Y188L and no known RPV resistance associated mutations; biological cutoff FC=2
Description: Rilpivirine (RPV) is a recently approved non-nucleoside reverse transcriptase inhibitor (NNRTI). […] Correlation analysis was performed among clinical specimens with both phenotypic and genotypic data (N=20,004). A novel mutation associated with phenotypic reduced rilpivirine susceptibility was identified, Y188L, as determined by a fold change in IC50 (FC) greater than the biological cutoff (BCO) for rilpivirine (FC=2).
Site-directed mutagenesis (SDM) was performed to verify the association of Y188L with RPV resistance. The impact of this mutation was also evaluated and compared to the existing RPV RAMs (K101E/P, E138A/G/K/Q/R, V179L, Y181C/I/V, H221Y, F227C, and M230I/L) by performing in-silico site directed mutagenesis (is SDM) as a method for analyzing samples in the database that have wild type amino acids at RPV resistance positions except for the single mutation of interest. Samples were not excluded based on other NNRTI RAMs, or their NRTI and PI profile. In the is SDM analysis, fold change (FC) distribution of samples with each mutation was compared to specimens without the mutation, and the difference was evaluated for statistical significance using Mann-Whitney test.
Drug susceptibility tests performed with resistance test vectors were carried out using packaging host and target host cells consisting of the human embryonic kidney cell line 293. […]

[3] = test system: HIV strain derived from an infected patient having a Y188L mutation; assay: PhenoSenseGT report, susceptibility analysis of patient-derived HIV; settings: fold change in IC50 greater than the biological cutoff (BCO) for those drugs, FIG. 3
Description: FIG. 3 is a sample PhenoSenseGT® report showing the results of susceptibility analyses to various nucleoside reverse transcriptase inhibitors (NRTIs), non-nucleoside reverse transcriptase inhibitors (NNRTIs), and protease inhibitors (PIs).
Drug susceptibility tests performed with resistance test vectors were carried out using packaging host and target host cells consisting of the human embryonic kidney cell line 293. Susceptibility tests were carried out with the RTV libraries by using viral particles comprising the RTV libraries to infect a host cell in which the expression of the indicator gene is measured. The amount of indicator gene (luciferase) activity detected in infected cells is used as a direct measure of “infectivity,” i.e., the ability of the virus to complete a single round of replication. Thus, drug susceptibility can be determined by plotting the amount of luciferase activity produced by patient derived viruses in the presence of varying concentrations of the antiviral drug. By identifying the concentration of drug at which luciferase activity is half-maximum, the IC50 of the virus from which patient-derived segment(s) were obtained for the antiretroviral agent can be determined. The IC50 provides a direct measure of the susceptibility of the HIV infecting the patient to the drug. […]

`Cc1cc(/C=C/C#N)cc(C)c1Nc1ccnc(Nc2ccc(C#N)cc2)n1` [rilpivirine] was tested, and the “fold change in IC50 (FC) of the Y188L site directed mutant” value [1] was 6.1 fold and the “median fold change in IC50 (FC) of clinical specimens with Y188L” value [2] was 9.2 fold.

In the case of `O=C1Nc2ccc(Cl)cc2[C@@](C#CC2CC2)(C(F)(F)F)O1` [efavirenz], the “susceptibility of HIV with Y188L mutation (fold change in IC50 relative to biological cutoff)” value [3] is reported as “reduced susceptibility”.

For `Cc1ccnc2c1NC(=O)c1cccnc1N2C1CC1` [nevirapine], the “susceptibility of HIV with Y188L mutation (fold change in IC50 relative to biological cutoff)” value [3] was “reduced susceptibility”.
